Assay results from ChEMBL document CHEMBL1130493, “Dimeric aminoglycosides: Design, synthesis and RNA binding” (Bioorg Med Chem Lett, 1997).

What was measured:
[1] = Compound was tested for the pseudo first-order rate constants for the inhibition of the cleavage step (k2) of the hammerhead ribozyme at a concentration of 100 uM; too active and complete inhibition is observed
[2] = Compound was tested for the pseudo first-order rate constants for the inhibition of the cleavage step (k2) of the hammerhead ribozyme at a concentration of 10 uM
[3] = Compound was tested for the pseudo first-order rate constants for the inhibition of the cleavage step (k2) of the hammerhead ribozyme at a concentration of 100 uM
[4] = Compound was tested for the pseudo first-order rate constants for the inhibition of the cleavage step (k2) of the hammerhead ribozyme at a concentration of 100 uM; too active and complete inhibition is observed; remark: listed apart in the source
[5] = Compound was tested for the pseudo first-order rate constants for the inhibition of the cleavage step (k2) of the hammerhead ribozyme at a concentration of 1 uM
[6] = Compound was tested for the pseudo first-order rate constants for the inhibition of the cleavage step (k2) of the hammerhead ribozyme at a concentration of 100 uM; not determined at this concentration
[7] = Compound was tested for the pseudo first-order rate constants for the inhibition of the cleavage step (k2) of the hammerhead ribozyme at a concentration of 1 uM; not determined at this concentration

| SMILES | K2 [2] | K2 [3] | K2 [5] | K2 [6] | K2 [7] | K2 [1] | K2 [4] |
| --- | --- | --- | --- | --- | --- | --- | --- |
| NC[C@H]1O[C@H](O[C@H]2[C@H](O)[C@@H](O[C@H]3O[C@H](CSCCOCCSSCCOCCSC[C@H]4O[C@H](O[C@@H]5[C@@H](O)[C@H](O[C@H]6O[C@H](CN)[C@@H](O)[C@H](O)[C@H]6O)[C@@H](N)C[C@H]5N)[C@H](O)[C@@H](N)[C@@H]4O)[C@@H](O)[C@H](N)[C@H]3O)[C@H](N)C[C@@H]2N)[C@H](O)[C@@H](O)[C@@H]1O | 0.017 min⁻¹ | – | – | – | – | Too active and complete inhibition is observed | – |
| NC[C@H]1O[C@H](O[C@H]2[C@H](O)[C@@H](O[C@H]3O[C@H](CO)[C@@H](O)[C@H](N)[C@H]3O)[C@H](N)C[C@@H]2N)[C@H](O)[C@@H](O)[C@@H]1O [KANAMYCIN A] | – | 0.058 min⁻¹ | – | – | – | Too active and complete inhibition is observed | Too active and complete inhibition is observed |
| NC[C@H]1OC(O[C@H]2[C@H](O)[C@@H](OC3O[C@H](CO)[C@@H](O)[C@H](N)[C@H]3O)[C@H](N)C[C@@H]2N)[C@H](N)C[C@@H]1O (single isomer, unassigned) [TOBRAMYCIN] | 0.051 min⁻¹ | 0.012 min⁻¹ | – | – | – | Too active and complete inhibition is observed | – |

More lines, main results first:

| K2 [2] | K2 [3] | K2 [5] | K2 [6] | K2 [7] | SMILES | K2 [1] | K2 [4] |
| --- | --- | --- | --- | --- | --- | --- | --- |
| 0.008 min⁻¹ | – | 0.046 min⁻¹ | – | – | NCC1O[C@H](O[C@H]2[C@@H](O)[C@H](O[C@H]3[C@H](O)[C@@H](N)C[C@@H](N)[C@@H]3O[C@H]3O[C@H](CN)[C@@H](O)[C@H](O)[C@H]3N)O[C@@H]2CSCCOCCSSCCOCCSC[C@H]2O[C@H](O[C@@H]3[C@@H](O)[C@H](O[C@H]4O[C@H](CN)[C@@H](O)C[C@H]4N)[C@@H](N)C[C@H]3N)[C@H](O)[C@@H](N)[C@@H]2O)[C@H](N)[C@@H](O)[C@@H]1O (stereo partly specified) | – | – |
| 0.014 min⁻¹ | – | – | – | – | NC[C@H]1O[C@H](O[C@H]2[C@H](O)[C@@H](O[C@H]3O[C@H](CSCCOCCSSCCOCCSC[C@H]4O[C@H](O[C@@H]5[C@@H](O)[C@H](O[C@H]6O[C@H](CN)[C@@H](O)C[C@H]6N)[C@@H](N)C[C@H]5N)[C@H](O)[C@@H](N)[C@@H]4O)[C@@H](O)[C@H](N)[C@H]3O)[C@H](N)C[C@@H]2N)[C@H](O)[C@@H](O)[C@@H]1O | Too active and complete inhibition is observed | – |
| 0.018 min⁻¹ | – | 0.062 min⁻¹ | No inhibition | – | NC[C@@H]1O[C@H](O[C@H]2[C@@H](O)[C@H](O[C@@H]3[C@@H](O)[C@H](N)C[C@H](N)[C@H]3O[C@H]3O[C@H](CN)[C@@H](O)[C@H](O)[C@H]3N)O[C@@H]2CO)[C@H](N)[C@@H](O)[C@@H]1O [FRAMYCETIN] | – | – |
| 0.003 min⁻¹ | – | 0.041 min⁻¹ | No inhibition | – | NCC1O[C@H](O[C@H]2[C@@H](O)[C@H](O[C@H]3[C@H](O)[C@@H](N)C[C@@H](N)[C@@H]3O[C@H]3O[C@H](CN)[C@@H](O)[C@H](O)[C@H]3N)O[C@@H]2CSCCOCCSSCCOCCSC[C@H]2O[C@@H](O[C@H]3[C@H](O)[C@@H](N)C[C@@H](N)[C@@H]3O[C@H]3O[C@H](CN)[C@@H](O)[C@H](O)[C@H]3N)[C@H](O)[C@@H]2O[C@@H]2OC(CN)[C@H](O)[C@@H](O)[C@@H]2N)[C@H](N)[C@@H](O)[C@@H]1O (stereo partly specified) | – | – |
| 0.011 min⁻¹ | – | – | – | No inhibition | NC[C@H]1O[C@H](O[C@H]2[C@H](O)[C@@H](O[C@H]3O[C@H](CSCCOCCSSCCOCCSC[C@H]4O[C@H](O[C@@H]5[C@@H](O)[C@H](O[C@H]6O[C@H](CN)[C@@H](O)C[C@H]6N)[C@@H](N)C[C@H]5N)[C@H](O)[C@@H](N)[C@@H]4O)[C@@H](O)[C@H](N)[C@H]3O)[C@H](N)C[C@@H]2N)[C@H](N)C[C@@H]1O [Tobramycin-Tobramycin] | Too active and complete inhibition is observed | – |
